Test results from patent publication US11396499B2, “Lysosomal acid lipase assay” (University of Washington, priority 2018, dated 2022).
Where “and” joins values, the source holds several entries; their conditions need not be identical. Equal values may be shown once. Values belong to the compound of their own block, whether it stands above or below them.

Tests used:
[1] = target: T1, lysosomal acid lipase (LAL) (Homo sapiens, UniProt P38571); experiment: LAL assay development: replacement of cardiolipin by phospholipids and of Triton X-100 by detergent; format: biochemical; conditions: for change of LAL activity over that measured with cardiolipin: phospholipid tested individually at 0.1 mmol/L as replacement for cardiolipin
T1 construct: from tissue; host or cells: dried blood spots (DBS) from healthy adults, healthy children and LAL-deficient patients
T1 sequence (P38571 77-399): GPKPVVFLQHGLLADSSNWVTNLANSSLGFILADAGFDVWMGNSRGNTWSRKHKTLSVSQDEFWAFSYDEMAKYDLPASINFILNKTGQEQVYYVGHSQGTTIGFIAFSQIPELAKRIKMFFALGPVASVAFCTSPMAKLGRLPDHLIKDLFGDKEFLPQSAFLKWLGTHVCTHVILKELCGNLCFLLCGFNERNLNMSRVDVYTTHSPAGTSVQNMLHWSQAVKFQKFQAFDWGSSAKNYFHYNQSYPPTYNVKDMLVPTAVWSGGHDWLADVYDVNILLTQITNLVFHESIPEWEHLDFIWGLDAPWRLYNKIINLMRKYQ
Method: A variety of phospholipids were evaluated as replacements for cardiolipin, which was used in the original LAL assay described by Hamilton et al. (Clin Chim Acta 2012; 413:1207-10). The following phospholipids were tested individually at 0.1 mmol/L: 1,2-dioleoyl-phosphatidylethanolamine, 1,2-dioleoyl-phosphatidylmethanol, 1,2-dioleoyl-phosphatidylcholine, 1,2-dioleoyl-phosphatidylserine, brain phosphatidylethanolamine, 1,2-heptadecyl-phosphatidylcholine, and 1,2-lauryl-phosphatidylcholine.
The original LAL assay described by Hamilton et al. (Clin Chim Acta 2012; 413:1207-10) used Triton X-100 as the detergent, which was replaced this with sodium taurodeoxycholate because this detergent largely remains in the aqueous phase following liquid-liquid extraction with ethyl acetate (thus minimizing injection of large amounts of detergent onto the UPLC column). […] Thus, 2.5 mmol/L was chosen for all subsequent studies.

[2] = target: T1, lysosomal acid lipase (LAL); experiment: Testing the library of palmitoyl-4MU analogs as LAL substrates with DBS, with and without Lalistat-2, UPLC-MS/MS; format: biochemical; conditions: for overall ranking in the library (activity and LAL specificity): library of 25 compounds
Method: The library of palmitoyl-4MU analogs was tested as LAL substrates as follows. Assay cocktail was a solution of 10:1 buffer to substrate stock, each warmed to 37° C. The substrate stock contained 3.7 mM substrate and 0.5% cardiolipin in ethanol. The buffer contained 0.15 M sodium acetate, pH 4.0, and 2.5 mM sodium taurodeoxycholate. Rehydrated blood mixture (40 mL) was combined with 10 mL of H2O or 30 mM Lalistat-2 in an Eppendorf 1.5 mL polypropylene tube and pre-incubated for 15 min at 37° C. with orbital shaking at 250 rpm. Assay cocktail (100 or 150 mL) was added and samples were incubated for 3 hr at 37° C. with orbital shaking at 250 rpm. Assay was quenched by first flash freezing to −80° C. followed by subsequent addition of 400 mL of ethyl acetate and thawing. Samples were then vortexed and centrifuged at 2700×g for 5 min. Top ethyl acetate layer (200 mL) was transferred to an autosampler plate and blown dry under nitrogen gas then resuspended in 1:1 H2O:methanol solution, and […] per well injected for analysis by UPLC-MS/MS. The LC-MS/MS data was converted into mmole of product by using an external standard of 2.5 nmole (the individual corresponding coumarins) spiked into 40 mL rehydrated blood in a 1.5 mL Eppendorf polypropylene tube incubated separately from the assay cocktail, which were quenched immediately following incubation. Additional controls included a Lalistat-2 inhibited rehydrated DBS solution incubated separately from the assay cocktail then combined and immediately quenched as a blank. Unique duplicate spiked controls and blank controls were used for each coumarin analog.

[3] = tested on: lysosomal acid lipase (LAL); experiment: UPLC-MS/MS LAL assay in dried blood spots (DBS) with substrate P-PMHC; format: biochemical, human
Method: Assay mixture was prepared by combining 9 volumes of 0.1 mol/L sodium acetate buffer (made by adding reagent grade NaOH to 0.1 mol/L reagent-grade acetic acid in water), pH 4.5, containing 2.5 mmol/L sodium taurodeoxycholate hydrate (Sigma, 287245) with 1 volume of 0.5% (w/v) bovine heart cardiolipin in ethanol (Sigma, C1649) containing 3 mmol/L substrate palmitoyl 4-propyl-8-methyl-7-hydroxycoumarin (P-PMHC) and 50 μmol/L carbon-13-labeled 4-propyl-8-methyl-7-hydroxycoumarin (internal standard). The latter was prepared by mixing solid substrate P-PMHC with internal standard solution in absolute ethanol, removing solvent in a centrifugal concentrator under vacuum (or with a jet of nitrogen), and then mixing with commercial cardiolipin/ethanol solution. This ethanol stock could be stored at −20° C. for several months (avoid>2-3 freeze-thaw cycles), and the aqueous buffer could be stored at 4° C. for several months. This was based on no change in assay results when new and stored solutions were used. Assay mixture was made fresh before each use.
To a 3-mm punch from a DBS in a 1.5-mL polypropylene Eppendorf tube was added 200 μL of purified water (Milli-Q, EMD Millipore). The tubes were shaken on an orbital platform shaker for 1 h at ambient temperature. The tube of DBS extract was mixed briefly on a vortex-type mixer, and a 10 μL aliquot was added to the well of a polypropylene, deep-well, 96-well plate (Costar, 3959). Assay mixture (30 μL, ambient temperature) was added to each well. The plate was centrifuged at 3000 g for 5 min at ambient temperature to ensure that all liquid was at the well bottom. The plate was sealed with a film cover (Advantage 96-well round clear Silicone/PTFE cap mat 962611). The plate was shaken at 37° C. in an incubator with orbital mixing at 400 rpm for 3 h. The reactions were quenched by addition of 80 μL of purified water (Milli-Q, EMD Millipore) followed by 400 μL of HPLC-grade ethyl acetate. The well contents were mixed by pipetting up and down approximately 10 times. The plate was centrifuged at 3000 g for 5 min at ambient temperature, and then 120 μL of the upper ethyl acetate layer was transferred to a shallow-well, 96-well polypropylene plate (Greigner, 651201). Solvent was removed at ambient temperature with a jet of nitrogen. To each well was added 200 μL of water/methanol (1:1, Fisher Optima Grade), and samples were mixed by pipetting up and down a few times. The plate was wrapped with aluminum foil and placed in the autosampler chamber at 8° C. in preparation for LC-MS/MS analysis.
Liquid chromatography was carried out using a Waters Acquity binary solvent pump system with a CSH, C18, 1.7-μm, 2.1×50-mm column (Waters, 186005296) and a CSH, C18, 1.7-μm guard column (Vanguard, 186005303). The solvent program was 99% A (70:30, water/acetonitrile, 0.1% formic acid, Fisher Optima grade)/1% B (50:50, acetonitrile/isopropanol, 0.1% formic acid) to 30% A/70% B over 1 min, then jump to 100% B and hold for 0.5 min, then to 99% A over 0.5 min (flow rate 0.8 mL/min). The total run time was 2.5 min. Mass spectrometry was carried out with a Waters Xevo TQ tandem-quadrupole instrument.

[4] = target: T1, lysosomal acid lipase (LAL); experiment: Previous fluorometric LAL assay (Hamilton et al.) with palmitoyl-4MU with and without Lalistat-2 in DBS; format: biochemical; conditions: same DBS extract, substrate palmitoyl-4MU, 10 μmol/L Lalistat-2
Excerpt: LAL is detected in leukocytes or fibroblasts using radiometric, immunologic, or fluorescence assays (The metabolic and molecular bases of inherited disease. 8th Ed. New York (NY): McGraw-Hill; 2001. p. 3827-3387). Hamilton and colleagues recently developed a fluorometric assay to detect LAL in dried blood spots (DBS) (Hamilton et al., Clin Chim Acta 2012; 413:1207-10). The assay is based on the release of 4-methylumbelliferone from its ester with palmitic acid. However, the substrate is not specific for LAL, and the method requires two assays performed in parallel, the first in the presence of a LAL-specific covalent inactivator Lalistat-2. LAL activity is calculated from the difference in these 2 assays.
A concentration of P-PMHC in the mixture of 3 mmol/L was settled on based on a combination of high LAL activity and minimal background. The original assay described by Hamilton et al. (Clin Chim Acta 2012; 413:1207-10) used 40 μL of an aqueous extract of a 3-mm DBS added to 160 μL of assay mixture. To keep the solvent volumes for the liquid-liquid extraction to a minimum, thus avoiding long times for solvent removal, 10 μL of an aqueous extract of a 3-mm DBS punch was added to 30 μL of assay mixture.

Structure (SMILES): CCCCCCCC/C=C\CCCCCCCC(=O)OC[C@H](COP(=O)([O-])OCC[N+](C)(C)C)OC(=O)CCCCCCC/C=C\CCCCCCCC [1,2-dioleoyl-phosphatidylcholine]
- change of LAL activity over that measured with cardiolipin [1]: None of these phospholipids led to any substantial increase in LAL

Structure (SMILES): CCCCCCCC/C=C\CCCCCCCC(=O)OC[C@H](COP(=O)(O)OCCN)OC(=O)CCCCCCC/C=C\CCCCCCCC [1,2-dioleoyl-phosphatidylethanolamine]
- change of LAL activity over that measured with cardiolipin [1]: None of these phospholipids led to any substantial increase in LAL

Structure (SMILES): CCCCCCCC/C=C\CCCCCCCC(=O)OCC(COP(=O)(O)OC)OC(=O)CCCCCCC/C=C\CCCCCCCC (centres unmarked) [1,2-dioleoyl-phosphatidylmethanol]
- change of LAL activity over that measured with cardiolipin [1]: None of these phospholipids led to any substantial increase in LAL

Structure (SMILES): CCCCCCCC/C=C\CCCCCCCC(=O)OC[C@H](COP(=O)(O)OC[C@H](N)C(=O)O)OC(=O)CCCCCCC/C=C\CCCCCCCC [1,2-dioleoyl-phosphatidylserine]
- change of LAL activity over that measured with cardiolipin [1]: None of these phospholipids led to any substantial increase in LAL

Structure (SMILES): CCCCCCCCCCCCCCCCC(=O)OC[C@H](COP(=O)([O-])OCC[N+](C)(C)C)OC(=O)CCCCCCCCCCCCCCCC [1,2-heptadecyl-phosphatidylcholine]
- change of LAL activity over that measured with cardiolipin [1]: None of these phospholipids led to any substantial increase in LAL

Structure (SMILES): CCCCCCCCCCCC(=O)OC[C@H](COP(=O)([O-])OCC[N+](C)(C)C)OC(=O)CCCCCCCCCCC [1,2-lauryl-phosphatidylcholine]
- change of LAL activity over that measured with cardiolipin [1]: None of these phospholipids led to any substantial increase in LAL

- substrate activity with DBS as the source of LAL compared to palmitoyl-4MU ([2]; 3.7 mM substrate stock, 3 hr 37° C.): more active than palmitoyl-4MU
- specific activity ([3]; final assay conditions, 3-mm punch of a DBS from a healthy adult, UPLC-MS/MS): 874 µmol/h/L
- specificity of the substrate for LAL in DBS ([3]; from Lalistat-2 inhibition and LAL-deficient patients, listed as P-PMHC): highly specific for LAL in DBS
- LAL activity in DBS of LAL-deficient patients ([3]; six LAL-deficient patients, UPLC-MS/MS, no Lalistat-2): close to zero
Structure (SMILES): CCCCCCCCCCCCCCCC(=O)Oc1ccc2c(CCC)cc(=O)oc2c1C [Compound 1, 4-propyl-8-methyl-7-palmitoyloxycoumarin]
- overall ranking in the library (activity and LAL specificity) [2]: highest combination of total lipase activity and LAL-specificity
- overall ranking in the library (activity and LAL specificity) ([2]; listed as P-PMHC): best combination of high specific activity on LAL and high specificity for LAL
- Activity without Lalistat-2 ([3]; LAL activity toward substrate P-PMHC, tandem mass spectrometry, DBS of Adult 1 (r9) / Adult 2 (r10), triplicate, blank corrected): 519 µmol/h/L and 539 µmol/h/L and 473 µmol/h/L and 554 µmol/h/L and 582 µmol/h/L

- inhibition of the activity toward P-PMHC ([3]; DBS extracts from two healthy persons preincubated with 10 μmol/L Lalistat-2): 98%
- inhibition of the activity toward P-PMHC ([3]; DBS extracts preincubated with 100 μmol/L Lalistat-2): 99%
- total lipase activity blocked [4]: 78%
Structure (SMILES): O=C(Oc1nsnc1N1CCCCC1)N1CCCCC1 [Lalistat-2, reference compound]

- decrease of LAL activity on replacement of Triton X-100 ([1]; 2.5 mmol/L sodium taurodeoxycholate): 20%
Structure (SMILES): C[C@H](CCC(=O)NCCS(=O)(=O)[O-])[C@H]1CC[C@H]2[C@@H]3CC[C@@H]4C[C@H](O)CC[C@]4(C)[C@H]3C[C@H](O)[C@]12C.[Na+] [sodium taurodeoxycholate]
